Results on 9 compounds are retold here after PubChem BioAssay (NCI).

SMILES strings stand for the structures.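 In this assay, cells in 96-well plates receive the compound at five concentrations for 48 hours. Endpoints are linearly interpolated between the surrounding concentrations. TGI: concentration producing complete growth inhibition.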 Where only a bound is given, the exact number is not on record here.

Among the test systems are M19-MEL melanoma; SW-620 colon; HOP-62 NSCLC; SNB-78 CNS; LOX IMVI melanoma; A549 NSCLC; UACC-62 melanoma; NCI-H23 lung; UO-31 renal; SK-MEL-5 melanoma; HOP-18 NSCLC; U251 CNS; SN12C renal; HT29 colon; XF 498 CNS; SK-MEL-2 melanoma; RPMI-8226 leukemia; KM12 colon; MOLT-4 leukemia; SF-268 CNS.
What all share (assay): NCI-60 cell line screen, 48 h

In the case of `CCOC(=O)NC(=O)c1cn(CCSCCOC(=O)NCCCCCCNC(=O)OCCSCCn2cc(C(=O)NC(=O)OCC)c(=O)[nH]c2=O)c(=O)[nH]c1=O`, the TGI in the assay with M19-MEL melanoma, in the assay on SW-620 colon, with HOP-62 NSCLC, in the assay on SNB-78 CNS, in the assay with LOX IMVI melanoma and in the assay on A549 NSCLC was more than 100 µM throughout. Besides, the TGI with UACC-62 melanoma, in the assay on NCI-H23 lung, in the assay with UO-31 renal, with SK-MEL-5 melanoma, in the assay with HOP-18 NSCLC and with U251 CNS was more than 100 µM each time. Further, the TGI in the assay with SN12C renal and in the assay with HT29 colon was more than 100 µM each time.
Regarding `O=C(O)CNS(=O)(=O)c1ccc(NC(=O)Nc2ccccc2)cc1`, the TGI with XF 498 CNS is more than 100 µM; in the assay on M19-MEL melanoma it was more than 55.5 µM; in the assay with SW-620 colon, more than 100 µM; in the assay on HOP-62 NSCLC, more than 100 µM; with SNB-78 CNS, more than 100 µM; with SK-MEL-2 melanoma, more than 100 µM. For the same compound, the TGI with LOX IMVI melanoma is more than 100 µM; with A549 NSCLC, more than 100 µM; in the assay with RPMI-8226 leukemia it was more than 100 µM; in the assay on UACC-62 melanoma, more than 52.9 µM; with NCI-H23 lung, more than 100 µM; in the assay with UO-31 renal, more than 100 µM. For the same compound, the TGI with SK-MEL-5 melanoma, in the assay with HOP-18 NSCLC, with U251 CNS, with KM12 colon, in the assay with MOLT-4 leukemia and with SF-268 CNS was more than 100 µM each time. Further, the TGI with SN12C renal and with HT29 colon was more than 100 µM each time.
Take `Cc1cc(N=Nc2ccc(N=Nc3c(O)c(S(=O)(=O)O)cc4cc(S(=O)(=O)O)ccc34)cc2C)ccc1N=Nc1ccc2cc(S(=O)(=O)O)cc(S(=O)(=O)O)c2c1`: the TGI in the assay with XF 498 CNS, in the assay on M19-MEL melanoma, in the assay on SW-620 colon, in the assay on HOP-62 NSCLC, with SNB-78 CNS and in the assay on SK-MEL-2 melanoma was more than 100 µM in each case. Besides, the TGI in the assay with LOX IMVI melanoma, in the assay with A549 NSCLC, in the assay with RPMI-8226 leukemia, with UACC-62 melanoma, with NCI-H23 lung and in the assay with UO-31 renal was more than 100 µM in each case. The TGI in the assay with SK-MEL-5 melanoma, in the assay with HOP-18 NSCLC, with U251 CNS, in the assay with KM12 colon, in the assay with MOLT-4 leukemia and with SF-268 CNS was more than 100 µM in each case. In addition, the TGI was more than 100 µM with SN12C renal and more than 31.6 µM in the assay with HT29 colon.
Regarding `CCNCCCCNCC`, the TGI in the assay with XF 498 CNS, with M19-MEL melanoma, in the assay on SW-620 colon, in the assay with HOP-62 NSCLC, in the assay on SNB-78 CNS and in the assay on SK-MEL-2 melanoma was more than 3750 µM each time. In addition, the TGI in the assay with LOX IMVI melanoma is more than 3750 µM; in the assay with A549 NSCLC, more than 3750 µM; in the assay on RPMI-8226 leukemia it was more than 3750 µM; with UACC-62 melanoma it was more than 3750 µM; with NCI-H23 lung it was more than 3750 µM; in the assay with UO-31 renal, more than 3400 µM. For the same compound, the TGI with SK-MEL-5 melanoma is more than 3750 µM; in the assay with HOP-18 NSCLC it was more than 37.5 µM; with U251 CNS it was more than 3750 µM; with KM12 colon, more than 3750 µM; in the assay with MOLT-4 leukemia, more than 3750 µM; in the assay on SF-268 CNS, more than 3750 µM. Besides, the TGI in the assay with SN12C renal and in the assay with HT29 colon was more than 3750 µM in each case.
With `COC(=O)NN1C(=O)C(=P(c2ccccc2)(c2ccccc2)c2ccccc2)C(C(=O)OC)=C1C`, the TGI in the assay on M19-MEL melanoma, with SW-620 colon, in the assay on SNB-78 CNS, in the assay on SK-MEL-2 melanoma, with LOX IMVI melanoma and with RPMI-8226 leukemia was more than 100 µM in each case. Also, the TGI in the assay with UACC-62 melanoma, in the assay on NCI-H23 lung, with UO-31 renal, in the assay on SK-MEL-5 melanoma, in the assay with HOP-18 NSCLC and in the assay with U251 CNS was more than 100 µM each time. Moreover, the TGI with MOLT-4 leukemia, in the assay with SF-268 CNS, in the assay on SN12C renal and in the assay on HT29 colon was more than 100 µM throughout.
Consider `CC1=C2C(O)C(C(C)C(=O)NC(C)C)CCC2(C)C=CC1=O` (stereo unspecified), for which the TGI with XF 498 CNS, with SW-620 colon, with HOP-62 NSCLC, in the assay with SNB-78 CNS, in the assay on SK-MEL-2 melanoma and in the assay on LOX IMVI melanoma was more than 100 µM throughout. Also, the TGI in the assay on A549 NSCLC, with RPMI-8226 leukemia, with UACC-62 melanoma, in the assay on NCI-H23 lung, in the assay on UO-31 renal and with SK-MEL-5 melanoma was more than 100 µM in each case. Further, the TGI with HOP-18 NSCLC, with U251 CNS, with KM12 colon, in the assay on MOLT-4 leukemia, with SF-268 CNS and in the assay on SN12C renal was more than 100 µM each time. In addition, in the assay with HT29 colon, the TGI was more than 100 µM.
Consider `CC(C)(O)[C@H](CCO)O[Si](c1ccccc1)(c1ccccc1)C(C)(C)C`, for which the TGI in the assay with XF 498 CNS is 20.7 µM; with M19-MEL melanoma, 29.3 µM; with SW-620 colon it was 26.8 µM; in the assay on SNB-78 CNS, 29.8 µM; with SK-MEL-2 melanoma, 28.4 µM; in the assay on LOX IMVI melanoma, 27.6 µM. Further, the TGI was found to be 22.1 µM in the assay with A549 NSCLC; 49.4 µM with RPMI-8226 leukemia; 24.1 µM in the assay with UACC-62 melanoma; 23 µM in the assay with UO-31 renal; 27.2 µM with SK-MEL-5 melanoma; 11.1 µM in the assay on HOP-18 NSCLC. Also, the TGI with U251 CNS came out at 24.9 µM; with KM12 colon it was 25.5 µM; in the assay with MOLT-4 leukemia, 20 µM; with SF-268 CNS, 26.7 µM; in the assay on SN12C renal it was 14 µM; in the assay on HT29 colon, 24.6 µM.
On to `CC1OC(OC2CC(O)(C(=O)CO)Cc3c(O)c4c(c(O)c32)C(=O)c2ccccc2C4=O)CC(N)C1O` (stereo unspecified), for which the TGI in the assay on XF 498 CNS is 0.588 µM; in the assay on M19-MEL melanoma, 0.15 µM; with SW-620 colon it was 2.48 µM; in the assay on HOP-62 NSCLC it was 0.0782 µM; with SNB-78 CNS it was 0.898 µM; in the assay on LOX IMVI melanoma, 0.029 µM. Moreover, the TGI with RPMI-8226 leukemia came to 0.235 µM; in the assay with UACC-62 melanoma, 0.109 µM; in the assay on NCI-H23 lung it was 0.203 µM; in the assay with UO-31 renal, 0.267 µM; with SK-MEL-5 melanoma, 0.0523 µM; with HOP-18 NSCLC, 0.0358 µM. The TGI with U251 CNS is 0.188 µM; in the assay with KM12 colon it was 4.59 µM; in the assay on MOLT-4 leukemia, less than 0.0819 µM; in the assay with SF-268 CNS, 0.549 µM; in the assay with SN12C renal, 0.887 µM; with HT29 colon, 0.493 µM.
For the compound `Cn1c(=O)c2nc(N3CCCCC3)cnc2n(C)c1=O`, the TGI in the assay with XF 498 CNS, with M19-MEL melanoma, in the assay on SW-620 colon, in the assay on HOP-62 NSCLC, in the assay on A549 NSCLC and in the assay on RPMI-8226 leukemia was more than 100 µM in each case. Besides, the TGI in the assay on UACC-62 melanoma, with NCI-H23 lung, in the assay with UO-31 renal, in the assay with SK-MEL-5 melanoma, in the assay on U251 CNS and with KM12 colon was more than 100 µM in each case. Moreover, the TGI in the assay with MOLT-4 leukemia, in the assay with SF-268 CNS, in the assay on SN12C renal and in the assay on HT29 colon was more than 100 µM throughout.
